# Measured values as given in US9540391B2, “Isomannide derivatives as inhibitors of soluble epoxide hydrolase” (SANOFI, priority 2013, dated 2017).
# Structures can show the parent of a compound that is named as a salt.
# Biological target: T1, recombinant sEH (Homo sapiens, UniProt P34913)
# T1 construct: made in house; host or cells: Sf9 insect cells
# T1 sequence (P34913 1-555): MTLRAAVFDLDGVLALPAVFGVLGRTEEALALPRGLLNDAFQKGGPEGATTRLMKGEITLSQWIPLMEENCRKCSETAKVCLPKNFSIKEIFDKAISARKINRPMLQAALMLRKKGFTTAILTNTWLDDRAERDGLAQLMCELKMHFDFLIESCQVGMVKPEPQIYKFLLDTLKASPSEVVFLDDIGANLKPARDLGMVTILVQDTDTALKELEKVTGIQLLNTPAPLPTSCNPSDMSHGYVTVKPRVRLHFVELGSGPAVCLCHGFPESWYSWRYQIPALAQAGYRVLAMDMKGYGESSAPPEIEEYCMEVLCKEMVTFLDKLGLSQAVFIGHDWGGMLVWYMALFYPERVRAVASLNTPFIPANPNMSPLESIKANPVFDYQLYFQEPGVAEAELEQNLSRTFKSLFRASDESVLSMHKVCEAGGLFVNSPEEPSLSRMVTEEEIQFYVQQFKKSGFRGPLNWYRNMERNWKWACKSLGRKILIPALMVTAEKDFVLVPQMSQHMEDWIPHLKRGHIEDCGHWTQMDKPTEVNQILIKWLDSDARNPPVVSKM
# Test: biochemical screening assay for inhibition of soluble epoxide hydrolase (fluorometric, Phome substrate)
# In short: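 Human sEH from Sf9 cells (2 nM final) was pre-incubated 15 min at 30 °C with compound (0.0001–10 μM), then reacted 60 min at 30 °C with 5 μM Phome in 25 mM Hepes/0.01% albumin. Fluorescence of released 6-methoxy-2-naphthaldehyde was read before substrate and at end; IC50 from % inhibition.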
row,IC50 [nM],SMILES
1,37,"O=C(NC1CCCCC1)N[C@H]1CO[C@@H]2[C@@H](CCc3ccccc3)CO[C@@H]21 [Example 349, 1-Cyclohexyl-3-((3S,3aR,6S,6aR)-6-phenethyl-hexahydro-furo[3,2-b]furan-3-yl)-urea]"
2,2,"Cc1ccc(S[C@H]2CO[C@H]3[C@@H]2OC[C@@H]3NC(=O)NC2CCCCC2)nc1 [Example 59, 1-Cyclohexyl-3-[(3S,3aR,6S,6aS)-6-(5-methyl-pyridin-2-ylsulfanyl)-hexa-hydro-furo[3,2-b]furan-3-yl]-urea]"
3,61,N#CC1COC2C(NC(=O)Nc3ccc(Cl)c(Cl)c3)COC12 (stereo not shown) [Example 384]
4,11,"O=C(NC1CCCCC1)N[C@H]1CO[C@H]2[C@@H]1OC[C@@H]2Sc1ncc[nH]1 [Example 48, 1-Cyclohexyl-3-[(3S,3aR,6S,6aS)-6-(1H-imidazol-2-ylsulfanyl)-hexa-hydro-furo[3,2-b]furan-3-yl]-urea]"
5,30,"O=C(NC1CCCCC1)N[C@H]1CO[C@H]2[C@@H]1OC[C@@H]2Oc1cccc(N2CCNCC2)c1 [Example 142, 1-Cyclohexyl-3-[(3S,3aR,6S,6aS)-6-(3-piperazin-1-yl-phenoxy)-hexahydro-furo[3,2-b]furan-3-yl]-urea; trifluoroacetate]"
6,2,"Cc1ncccc1O[C@H]1CO[C@H]2[C@@H]1OC[C@@H]2NC(=O)NC1CCCCC1 [Example 76, 1-cyclohexyl-3-[(3S,3aR,6S,6aS)-6-(2-methyl-pyridin-3-yloxy)-hexahydro-furo[3,2-b]furan-3-yl]-urea]"
7,87,"O=C(Nc1cccc(C(F)(F)F)c1)N[C@H]1CO[C@H]2[C@@H]1OC[C@@H]2C#Cc1ccsc1 [Example 316, 1-((3S,3aR,6S,6aR)-6-Thiophen-3-ylethynyl-hexahydro-furo[3,2-b]furan-3-yl)-3-(3-trifluoromethyl-phenyl)-urea]"
8,8,"Cc1ccc(O[C@H]2CO[C@H]3[C@@H]2OC[C@@H]3NC(=O)NC2CCCCC2)cn1 [Example 28, 1-Cyclohexyl-3-[(3S,3aR,6S,6aS)-6-(6-methyl-pyridin-3-yloxy)-hexahydro-furo[3,2-b]furan-3-yl]-urea]"
9,19,"O=C(NC1CCCCC1)N[C@H]1CO[C@H]2[C@@H]1OC[C@@H]2SCCO [Example 14, 1-Cyclohexyl-3-[(3S,3aR,6S,6aS)-6-(2-hydroxy-ethylsulfanyl)-hexahydro-furo[3,2-b]furan-3-yl]-urea]"
10,100,"O=C(NCCc1cccs1)N[C@H]1CO[C@H]2[C@@H]1OC[C@@H]2C#Cc1ccccc1 [Example 296, 1-((3S,3aR,6S,6aR)-6-Phenylethynyl-hexahydro-furo[3,2-b]furan-3-yl)-3-(2-thiophen-2-yl-ethyl)-urea]"
11,2,"O=C(NC1CCCCC1)N[C@H]1CO[C@H]2[C@@H]1OC[C@@H]2Oc1cnc(Cl)c(F)c1 [Example 64, 1-[(3S,3aR,6S,6aS)-6-(6-Chloro-5-fluoro-pyridin-3-yloxy)-hexahydro-furo[3,2-b]furan-3-yl]-3-cyclohexyl-urea]"
12,67,"O=C(NCCc1ccccc1)N[C@H]1CO[C@H]2[C@@H]1OC[C@@H]2C#Cc1ccccc1 [Example 297, 1-Phenethyl-3-((3S,3aR,6S,6aR)-6-phenylethynyl-hexahydro-furo[3,2-b]furan-3-yl)-urea]"
13,229,"O=C(Nc1ccc2c(c1)OCO2)NC1COC2C(CCc3ccccc3)COC12 [Example 348, 1-Benzo[1,3]dioxol-5-yl-3-((3S,3aR,6S,-6aR)-6-phenethyl-hexahydro-furo[3,2-b]furan-3-yl)-urea]"
14,882,"CCN1CC(CNC(=O)N[C@H]2CO[C@H]3[C@@H]2OC[C@@H]3Oc2cccnc2C)CC1=O (stereo partly drawn) [Example 254, 1-(1-Ethyl-5-oxo-pyrrolidin-3-ylmethyl)-3-[(3S,3aR,6S,6aS)-6-(2-methyl-pyridin-3-yloxy)-hexahydro-furo[3,2-b]furan-3-yl]-urea]"
15,227,"O=C(Nc1ccc2c(c1)OCCO2)N[C@H]1CO[C@H]2[C@@H]1OC[C@@H]2/C=C\c1ccccc1 [Example 318, 1-(2,3-Dihydro-benzo[1,4]dioxin-6-yl)-3-[(3S,3aR,6S,6aR)-6-((Z)-styryl)-hexahydro-furo[3,2-b]furan-3-yl]-urea]"
16,54,"Cc1ncccc1O[C@H]1CO[C@H]2[C@@H]1OC[C@@H]2NC(=O)NCc1c(C)n[nH]c1C [Example 222, 1-(3,5-Dimethyl-1H-pyrazol-4-ylmethyl)-3-[(3S,3aR,6S,6aS)-6-(2-methyl-pyridin-3-yloxy)-hexahydro-furo[3,2-b]furan-3-yl]-urea]"
17,2,"Cc1ncccc1O[C@H]1CO[C@H]2[C@@H]1OC[C@@H]2NC(=O)NC1CCCC(C)C1 (stereo partly drawn) [Example 258, 1-(3-Methyl-cyclohexyl)-3-[(3S,3aR,6S,6aS)-6-(2-methyl-pyridin-3-yloxy)-hexahydro-furo[3,2-b]furan-3-yl]-urea]"
18,450,"CN(C)C[C@H]1CO[C@H]2[C@@H]1OC[C@@H]2NC(=O)NC1CCCCC1 [Example 9, 1-cyclohexyl-3-((3S,3aR,6S,6aR)-6-dimethylaminomethyl-hexahydro-furo[3,2-b]furan-3-yl)-urea; trifluoroacetate]"
19,19,"Cc1ccc(S(=O)(=O)O[C@@H]2CO[C@H]3[C@@H]2OC[C@@H]3NC(=O)NC2CCCCC2)cc1 [Example 2, toluene-4-sulfonic acid (3R,3aS,6S,6aR)-6-(3-cyclohexyl-ureido)-hexahydro-furo[3,2-b]furan-3-yl ester]"
20,19,"Cc1ncccc1O[C@H]1CO[C@H]2[C@@H]1OC[C@@H]2NC(=O)NC1CCCCC1C(F)(F)F (stereo partly drawn) [Example 275, 1-[(3S,3aR,6S,6aS)-6-(2-Methyl-pyridin-3-yloxy)-hexahydro-furo[3,2-b]furan-3-yl]-3-(2-trifluoromethyl-cyclohexyl)-urea]"
21,88,"Cc1ncccc1O[C@H]1CO[C@H]2[C@@H]1OC[C@@H]2NC(=O)NCc1cccc2c1OCCO2 [Example 200, 1-(2,3-Dihydro-benzo[1,4]dioxin-5-ylmethyl)-3-[(3S,3aR,6S,6aS)-6-(2-methyl-pyridin-3-yloxy)-hexahydro-furo[3,2-b]furan-3-yl]-urea]"
22,31,"Cc1ncccc1O[C@H]1CO[C@H]2[C@@H]1OC[C@@H]2NC(=O)N[C@@H]1C[C@H](C)CC[C@H]1C(C)C [Example 174, 1-((1R,2S,5R)-2-Isopropyl-5-methyl-cyclohexyl)-3-[(3S,3aR,6S,6aS)-6-(2-methyl-pyridin-3-yloxy)-hexa-hydro-furo[3,2-b]furan-3-yl]-urea]"
23,279,"O=C(NCc1ccc(F)cc1)N[C@H]1CO[C@H]2[C@@H]1OC[C@@H]2C#Cc1ccsc1 [Example 304, 1-(4-Fluoro-benzyl)-3-((3S,3aR,6S,6aR)-6-thiophen-3-ylethynyl-hexahydro-furo[3,2-b]furan-3-yl)-urea]"
24,21,"CN1CCN(C(=O)c2ccc(O[C@H]3CO[C@H]4[C@@H]3OC[C@@H]4NC(=O)NC3CCCCC3)cc2)CC1 [Example 119, 1-Cyclohexyl-3-{(3S,3aR,6S,6aS)-6-[4-(4-methyl-piperazine-1-carbonyl)-phenoxy]-hexahydro-furo[3,2-b]furan-3-yl}-urea; trifluoroacetate]"
25,72,"Cc1cc(C)cc(NC(=O)N[C@H]2CO[C@H]3[C@@H]2OC[C@@H]3C#Cc2ccsc2)c1 [Example 302, 1-(3,5-Dimethyl-phenyl)-3-((3S,3aR,6S,6aR)-6-thiophen-3-ylethynyl-hexahydro-furo[3,2-b]furan-3-yl)-urea]"
26,66,"COc1cc(NC(=O)NC2COC3C(C=Cc4ccccc4)COC23)cc(OC)c1 [Example 321, 1-(3,5-Dimethoxy-phenyl)-3-[(3S,3aR,6R)-6-((S)-(Z)-styryl)-hexa-hydro-furo[3,2-b]furan-3-yl]-urea]"
27,2,"CCOC(=O)c1cccc(O[C@H]2CO[C@H]3[C@@H]2OC[C@@H]3NC(=O)NC2CCCCC2)c1 [Example 141, 3-[(3S,3aS,6S,6aR)-6-(3-Cyclohexyl-ureido)-hexahydro-furo[3,2-b]furan-3-yloxy]-benzoic acid ethyl ester]"
28,2,"O=C(N[C@H]1CO[C@H]2[C@@H]1OC[C@@H]2Oc1ccc(F)cc1)N[C@@H]1CCC[C@H]1OCc1ccccc1 [Example 152, 1-((1R,2R)-2-Benzyloxy-cyclopentyl)-3-[(3S,3aR,6S,6aS)-6-(4-fluoro-phenoxy)-hexahydro-furo[3,2-b]furan-3-yl]-urea]"
29,98,"Cc1cccc(CNC(=O)N[C@H]2CO[C@@H]3[C@@H]2OC[C@H]3/C=C\c2ccccc2)c1 [Example 327, 1-(3-Methyl-benzyl)-3-[(3S,3aR,6R)-6-((S)-(Z)-styryl)-hexahydro-furo[3,2-b]furan-3-yl]-urea]"
30,2,"O=C(NC1CCCCC1)N[C@H]1CO[C@H]2[C@@H]1OC[C@@H]2Oc1ccc(F)c(Cl)c1 [Example 29, 1-[(3S,3aR,6S,6aS)-6-(3-Chloro-4-fluoro-phenoxy)-hexahydro-furo[3,2-b]furan-3-yl]-3-cyclohexyl-urea]"

row,SMILES,IC50 [nM]
1,"CCCCOc1ccc(NC(=O)NC2COC3C(C=Cc4ccccc4)COC23)cc1 [Example 320, 1-(4-Butoxy-phenyl)-3-[(3S,3aR,6R)-6-((S)-(Z)-styryl)-hexahydro-furo[3,2-b]furan-3-yl]-urea]",140
